25 compounds from patent publication US9345247B2, “Azaindole carboxylic acid amides and azaindole thiocarboxylic acid amides for use as insecticides and acaricides” (BAYER CROPSCIENCE AG, priority 2012, dated 2016) can be followed below.

Data set [1] relates to larvae of the mustard beetle (Phaedon cochleariae). Kind of data set: Phaedon cochleariae spray test (PHAECO). The data set is classed as in vivo. Here is the method:
Phaedon cochleariae—Spray Test (PHAECO)
(§1) To produce a suitable preparation of active compound, 1 part by weight of active compound is mixed with the stated amounts of solvent and emulsifier, and the concentrate is diluted with emulsifier-containing water to the desired concentration.
Discs of Chinese cabbage leaves (Brassica pekinensis) are sprayed with an active compound formulation of the desired concentration and, after drying, populated with larvae of the mustard beetle (Phaedon cochleariae).
After 7 days, the efficacy in % is determined. 100% means that all the beetle larvae have been killed; 0% means that no beetle larvae have been killed.
After the stated period of time, the effect in % is determined 100% means that all the beetle larvae have been killed; 0% means that no beetle larvae have been killed.

Data set [2] deals with caterpillars of the armyworm (Spodoptera frugiperda). The data set can be described thus: Spodoptera frugiperda spray test (SPODFR). The data set is classed as in vivo. As to conditions: for efficacy: spray, after 7 days. Here is the method: Spodoptera frugiperda—Spray Test (SPODFR)
(§2) To produce a suitable active compound formulation, 1 part by weight of active compound is mixed with the stated amounts of solvent and emulsifier, and the concentrate is diluted with emulsifier-containing water to the desired concentration.
Leaf discs of maize (Zea mays) are sprayed with an active compound formulation of the desired concentration and, after drying, populated with caterpillars of the armyworm (Spodoptera frugiperda).
After 7 days, the efficacy in % is determined. 100% means that all the caterpillars have been killed; 0% means that no caterpillars have been killed.
as §1
Leaf discs of maize (Zea mays) are sprayed with an active compound preparation of the desired concentration and, after drying, populated with caterpillars of the armyworm (Spodoptera frugiperda).
After the stated period of time, the effect in % is determined. 100% means that all the caterpillars have been killed; 0% means that no caterpillars have been killed.

Data set [3] is described as follows: log P by HPLC on reversed-phase column (C18), EEC directive 79/831 Annex V.A8. The data set is classed as physicochemical. As to conditions: for log p: HPLC, acidic range pH 2.7, 43° C. Here is the method:
a) The determination of the W by LC-MS in the acidic range is effected at pH 2.7, acetonitrile (contains 0.1% formic acid) and water as eluents; linear gradient from 10% acetonitrile to 95% acetonitrile, instrument: Agilent 1100 LC-System, Agilent MSD System, HTS PAL. The log P values reported in the tables and Preparation Examples above were determined in accordance with EEC directive 79/831 Annex V.A8 by HPLC (High Performance Liquid Chromatography) using a reversed-phase column (C18). Temperature 43° C. The calibration is effected with unbranched alkan-2-ones (having 3 to 16 carbon atoms), for which the log P values are known.

Data set [4] relates to greenhouse red spider mite (Tetranychus urticae). Kind of data set: Tetranychus urticae spray test, OP-resistant (TETRUR). It is filed as in vivo. As to conditions: for efficacy: 100 g/ha, spray, after 6 days. The procedure:
as §2
Discs of bean leaves (Phaseolus vulgaris) infested by all stages of the greenhouse red spider mite (Tetranychus urticae) are sprayed with an active compound formulation of the desired concentration.
After 6 days, the efficacy in % is determined 100% means that all the spider mites have been killed; 0% means that none of the spider mites have been killed. […]

Each structure is given as a SMILES string.

Regarding `C#CCn1c(C(=O)NC(c2cc(Cl)c(F)c(Cl)c2F)C(F)(F)F)cc2cc(C(=O)NC3CC3)c(Cl)nc21` (stereo not drawn) [Compound 69], the efficacy came to 100% in data set [1] (100 g/ha, spray, after 7 days) and 100% in data set [2] (100 g/ha). This compound returned a log p in data set [3] of 4.01.
For `CCn1c(C(=O)NC(c2ccc(F)c(C(F)(F)F)c2)C(F)(F)F)cc2cc(C(=O)NC3CC3)c(C)nc21` (stereo not drawn) [Compound 76], the efficacy in data set [1] (100 g/ha, spray, after 7 days) was found to be 100%; in data set [2] (100 g/ha) it was 100%; in data set [4], 100%. Also, the log p in data set [3] came out at 3.67.
As to `C#CCn1c(C(=O)NC(c2cccc(C(F)(F)F)c2)C(F)(F)F)cc2cc(C(=O)NC3CCC3)c(Cl)nc21` (stereo not drawn) [Compound 25], the efficacy in data set [1] (100 g/ha, spray, after 7 days) is recorded as 100%; in data set [4], 90%. Moreover, the log p in data set [3] was determined as 3.79.
Regarding `CCn1c(C(=O)NC(c2cc(Cl)c(F)c(Cl)c2F)C(F)(F)F)cc2cc(C(=O)NC3CC3)c(C)nc21` (stereo not drawn) [Compound 71], the efficacy in data set [1] (100 g/ha, spray, after 7 days) was determined as 100%; in data set [2] (100 g/ha), 100%. The same compound displayed a log p in data set [3] of 4.21.
In the case of `CCn1c(C(=O)NC(c2cccc(C(F)(F)F)c2)C(F)(F)F)cc2cc(C(=O)NC3CC3)c(C(F)(F)F)nc21` (stereo not drawn) [Compound 73], the efficacy is on record as 100% in data set [1] (100 g/ha, spray, after 7 days) and 100% in data set [2] (100 g/ha). This compound displayed a log p in data set [3] of 4.00.
As to `CCn1c(C(=O)NC(c2cccc(C(F)(F)F)c2)C(F)(F)F)cc2cc(C(=O)NC3COC3)c(Cl)nc21` (stereo not drawn) [Compound 39], the efficacy in data set [1] (100 g/ha, spray, after 7 days) stood at 100%; in data set [4] it was 90%. Also, the log p in data set [3] was 3.28.
For `Cn1c(C(=O)NC(c2cccc(C(F)(F)F)c2)C(F)(F)F)cc2cc(C(=O)NC3CC3)c(Cl)cc21` (stereo not drawn) [reference compound], in data set [1] (Phaedon cochleariae, 168 h, PHAECO, 0.8 g of ai/ha, 7 d, read-out: % Efficacy dat), the percent efficacy (larval mortality) at 0.8 g/ha turned out to be 0%. The Emax at 4 g/ha in data set [2] (Spodoptera frugiperda, 168 h, SPODFR, 4 g of ai/ha, 7 d, read-out: % Efficacy dat) amounted to 17%; in data set [4] (Tetranychus urticae, 144 h, TETRUR, 4 g of ai/ha, 6 d, read-out: % Efficacy dat) it was 0%.
In turn, `CCn1c(C(=O)NC(c2cccc(C(F)(F)F)c2)C(F)(F)F)cc2cc(C(=O)NCc3ccccn3)c(C)nc21` (stereo not drawn) [Compound 7] registered an efficacy in data set [4] of 90%. Besides, the log p in data set [3] is reported as 2.99.
Take `CCn1c(C(=O)NC(c2cccc(C(F)(F)F)c2)C(F)(F)F)cc2cc(C(=O)NC3(C#N)CC3)c(C(F)(F)F)nc21` (stereo not drawn) [Compound 74]: the efficacy in data set [1] (100 g/ha, spray, after 7 days) was found to be 100%; in data set [1] (500 g/ha, spray, after 7 days) it was 100%; in data set [2] (100 g/ha), 100%; in data set [2] (500 g/ha) it was 100%. This compound also came in with a log p in data set [3] of 3.93.
Regarding `CCn1c(C(=O)NC(c2ccc(F)c(Cl)c2)C(F)(F)F)cc2cc(C(=O)NC(C)C)c(Cl)nc21` (stereo not drawn) [Compound 17], in data set [4], the efficacy came out at 100%. The compound further came in with a log p in data set [3] of 3.88.
On to `CCn1c(C(=O)NC(c2ccc(F)c(C(F)(F)F)c2)C(F)(F)F)cc2cc(C(=O)NC3(C(N)=S)CC3)c(Cl)nc21` (stereo not drawn) [Compound 66], for which the efficacy was found to be 100% in data set [1] (100 g/ha, spray, after 7 days); 100% in data set [2] (100 g/ha); 100% in data set [4]. This compound also returned a log p in data set [3] of 3.64.
Regarding `CCn1c(C(=O)NC(c2cc(Cl)c(F)c(Cl)c2F)C(F)(F)F)cc2cc(C(=O)NC3(C#N)CC3)c(Cl)nc21` (stereo not drawn) [Compound 31], the efficacy was found to be 100% in data set [1] (100 g/ha, spray, after 7 days) and 100% in data set [2] (100 g/ha). Further, the log p in data set [3] stood at 4.32.
Turning to `CCn1c(C(=O)NC(c2ccc(F)c(Cl)c2)C(F)(F)F)cc2cc(C(=O)NC3CC3)c(C)nc21` (stereo not drawn) [Compound 9], the efficacy is listed as 100% in data set [1] (20 g/ha, spray, after 7 days) and 100% in data set [2] (100 g/ha). The compound further came in with a log p in data set [3] of 3.39.
`C#CCn1c(C(=O)NC(c2cc(Cl)c(F)c(Cl)c2)C(F)(F)F)cc2cc(C(=O)NC3CC3)c(Cl)nc21` (stereo not drawn) [Compound 68]: the efficacy worked out at 100% in data set [1] (100 g/ha, spray, after 7 days) and 100% in data set [2] (100 g/ha). In addition, the log p in data set [3] was found to be 3.85.
For the compound `CCn1c(C(=O)NC(c2cccc(C(F)(F)F)c2)C(F)(F)F)cc2cc(C(=O)NCC#N)c(Cl)cc21` (stereo not drawn) [reference compound], the Emax at 100 g/ha in data set [4] (Tetranychus urticae, 144 h, TETRUR, 100 g of ai/ha, 6 d, read-out: % Efficacy dat) is 0%.
For the compound `CCn1c(C(=O)NC(c2cccc(C(F)(F)F)c2)C(F)(F)F)cc2cc(C(=O)NC3CCC3)c(C)nc21` (stereo not drawn) [Compound 5], the efficacy in data set [1] (100 g/ha, spray, after 7 days) was found to be 100%; in data set [4], 90%. Besides, the log p in data set [3] is 3.89.
As for `CCn1c(C(=O)NC(c2cccc(C(F)(F)F)c2)C(F)(F)F)cc2cc(CNC(C)=O)c(C)nc21` (stereo not drawn) [Compound 94, 5-(Acetamidomethyl)-1-ethyl-6-methyl-N-{2,2,2-trifluoro-1-[3-(trifluoromethyl)phenyl]ethyl}-1H-pyrrolo[2,3-b]pyridine-2-carboxamide], the pest or weed control at 100 g/ha in data set [1] (Phaedon cochleariae, 168 h, 100 g/ha, spray, after 7 days, read-out: efficacy) is 100%. Besides, in data set [3] (reversed-phase HPLC column (C18), pH 2.7, final compounds of the synthesis examples, read-out: log P (HPLC-MS)), the chromatographic logP is 3.16.
Consider `CCn1c(C(=O)NC(c2cccc(C(F)(F)F)c2)C(F)(F)F)cc2cc(C(=O)NCC3CC3)c(Cl)nc21` (stereo not drawn) [Compound 57], for which the efficacy in data set [1] (100 g/ha, spray, after 7 days) was found to be 100%. The compound also came in with a log p in data set [3] of 4.06.
As to `C#CCNC(=O)c1cc2cc(C(=O)NC(c3cccc(C(F)(F)F)c3)C(F)(F)F)n(CC)c2nc1Cl` (stereo not drawn) [Compound 45], the efficacy in data set [1] (100 g/ha, spray, after 7 days) is 100%. For the same compound, the log p in data set [3] is listed as 3.69.
As for `C#CCn1c(C(=O)NC(c2ccc(F)c(C(F)(F)F)c2)C(F)(F)F)cc2cc(C(=O)NC3CC3)c(Cl)nc21` (stereo not drawn) [Compound 70], the efficacy in data set [1] (100 g/ha, spray, after 7 days) was 100%; in data set [2] (100 g/ha) it was 100%. In data set [3], the log p is listed as 3.55.
With `CCn1c(C(=O)NC(c2cccc(C(F)(F)F)c2)C(F)(F)F)cc2cc(C(=O)NC(CF)CF)c(C)nc21` (stereo not drawn) [Compound 8], in data set [1] (100 g/ha, spray, after 7 days), the efficacy amounted to 100%. The log p in data set [3] amounted to 3.67.
Regarding `CCn1c(C(=O)NC(c2cccc(C(F)(F)F)c2)C(F)(F)F)cc2cc(C(=O)NC3CC3)cnc21` (stereo not drawn) [Compound 3], the efficacy in data set [1] (100 g/ha, spray, after 7 days) turned out to be 100%. In data set [3], this compound showed a log p of 3.19.
In the case of `C#CCn1c(C(=O)NC(c2cccc(C(F)(F)F)c2)C(F)(F)F)cc2cc(C(=O)NC(C)C)c(Cl)nc21` (stereo not drawn) [Compound 24], the efficacy in data set [1] (100 g/ha, spray, after 7 days) is given as 100%; in data set [1] (500 g/ha, spray, after 7 days) it was 100%. For the same compound, the log p in data set [3] is recorded as 3.68.
For the compound `CCn1c(C(=O)NC(c2cc(Cl)c(F)c(Cl)c2)C(F)(F)F)cc2cc(C(=O)NC3CC3)c(C)nc21` (stereo not drawn) [Compound 72], the efficacy in data set [1] (100 g/ha, spray, after 7 days) is on record as 100%; in data set [2] (100 g/ha) it was 100%. In data set [3], this compound showed a log p of 4.00.
In turn, `CCC(=O)NCc1cc2cc(C(=O)NC(c3cccc(C(F)(F)F)c3)C(F)(F)F)n(CC)c2nc1C` (stereo not drawn) [Compound 93] gave an efficacy in data set [1] (100 g/ha, spray, after 7 days) of 100%. The log p in data set [3] amounted to 3.45.
